According to patent US8952024B2, “Herbicidal pyrimidone derivatives” (E I du Pont de Nemours and Company, priority 2009, dated 2015):

Tests used:
Assay type in all cases: in vivo
[1] = system: barnyardgrass (Echinochloa crus-galli); test: Test A pre-/postemergence plant response; conditions: for Barnyardgrass plant response rating: visual injury, 0 to 100 scale (0 no effect, 100 complete control), approx. ten days
Method in brief: (§1)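 Injury was scored visually after roughly ten days against untreated controls, 0 = no effect, 100 = complete control. Test chemicals in a surfactant-containing non-phytotoxic solvent were sprayed either onto soil preemergence or onto one- to two-leaf, 2–10 cm plants postemergence.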

[2] = system: pigweed (Amaranthus retroflexus); test: Test A pre-/postemergence plant response; conditions: for Pigweed plant response rating: visual injury, 0 to 100 scale (0 no effect, 100 complete control), approx. ten days
Method in brief: as §1

[3] = system: Italian ryegrass (Lolium multiflorum); test: Test B pre-/postemergence plant response; conditions: Postemergence
Method in brief: (§2)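 Plants treated either at seeding (loam/sand soil) or postemergence at 2 to 18 cm height, using a surfactant-containing non-phytotoxic solvent formulation. Evaluation was visual after 13 to 15 days, 0 to 100 scale relative to controls.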

[4] = system: blackgrass (Alopecurus myosuroides); test: Test B pre-/postemergence plant response; conditions: for Plant response rating, Blackgrass: Postemergence
Method in brief: as §2

[5] = system: downy bromegrass (Bromus tectorum); test: Test B pre-/postemergence plant response; conditions: for Plant response rating, Bromegrass, Downy: Postemergence
Method in brief: as §2

[6] = system: goosegrass (Eleusine indica); test: Test B pre-/postemergence plant response; conditions: Postemergence
Method in brief: as §2

[7] = system: large crabgrass (Digitaria sanguinalis); test: Test B pre-/postemergence plant response; conditions: Postemergence
Method in brief: as §2

[8] = system: morningglory (Ipomoea coccinea); test: Test B pre-/postemergence plant response; conditions: Postemergence
Method in brief: as §2

[9] = system: velvetleaf (Abutilon theophrasti); test: Test B pre-/postemergence plant response; conditions: Postemergence
Method in brief: as §2

[10] = system: wheat (Triticum aestivum); test: Test B pre-/postemergence plant response; conditions: Postemergence
Method in brief: as §2

[11] = system: woolly cupgrass (Eriochloa villosa); test: Test B pre-/postemergence plant response; conditions: Postemergence
Method in brief: as §2

[12] = system: yellow nutsedge (Cyperus esculentus); test: Test B pre-/postemergence plant response; conditions: Postemergence
Method in brief: as §2

[13] = system: Surinam grass (Brachiaria decumbens); test: Test B pre-/postemergence plant response; conditions: Postemergence
Method in brief: as §2

[14] = Postemergence, 125 g ai/ha, 0 to 100 scale where 0 is no effect and 100 is complete control
[15] = Preemergence, 125 g ai/ha, 0 to 100 scale, 0 = no effect, 100 = complete control
[16] = Preemergence, 500 g ai/ha, 0 to 100 scale, 0 = no effect, 100 = complete control
[17] = 31 g ai/ha, 0 to 100 scale (0 no effect, 100 complete control)
[18] = 125 g ai/ha, scale 0 to 100 (0 no effect, 100 complete control)
[19] = 62 g ai/ha, postemergence, 0 is no effect, 100 is complete control, 13 to 15 days
[20] = 125 g ai/ha, scale 0 (no effect) to 100 (complete control), 13 to 15 days
[21] = 250 g ai/ha, scale 0 to 100 (0 no effect, 100 complete control), 13 to 15 days
[22] = 62 g ai/ha, scale 0 to 100 (0 no effect, 100 complete control)

With `O=C1CCCC(O)=C1C(=O)c1cnc(-c2ccccc2)n(C2CC[S+]([O-])CC2)c1=O` (mixture of isomers) [Compound 169, 5-[(2-hydroxy-6-oxo-1-cyclohexen-1-yl)carbonyl]-2-phenyl-3-(trans/cis-tetrahydro-1-oxido-2H-thiopyran-4-yl)-4(3H)-pyrimidinone] the “Plant response rating, Barnyardgrass” value [1, 14] was 90, the “Barnyardgrass plant response rating” value ([1]; Postemergence, 500 g ai/ha) was 100 and the “Plant response rating, Barnyardgrass” value [1, 15] was 0. The “Plant response rating, Barnyardgrass” value [1, 16] was 50, the “Plant response rating, Pigweed” value [2, 14] was 100 and the “Pigweed plant response rating” value ([2]; Postemergence, 500 g ai/ha) was 100. The “Plant response rating, Pigweed” value [2, 15] was 0, the “Plant response rating, Pigweed” value [2, 16] was 50 and the “Plant response rating, Ryegrass, Italian” value ([3]; 16 g ai/ha, 0 to 100 scale) was 0. For the same compound, the “Plant response rating, Ryegrass, Italian” value [3, 17] was 0, the “Plant response rating, Ryegrass, Italian” value [3, 18] was 10 and the “Plant response rating, Blackgrass” value ([4]; 16 g ai/ha, 0 to 100 scale) was 0. The “Blackgrass plant response rating (0 to 100 scale)” value [4, 19] was 5, the “Plant response rating, Blackgrass” value [4, 17] was 5 and the “Plant response rating, Blackgrass” value [4, 18] was 10. The “Plant response rating, Bromegrass, Downy” value ([5]; 16 g ai/ha, 0 to 100 scale) was 0, the “Bromegrass, Downy plant response rating (0 to 100 scale)” value [5, 19] was 40 and the “Plant response rating, Bromegrass, Downy” value [5, 17] was 10. The “Plant response rating, Bromegrass, Downy” value [5, 18] was 90, the “Plant response rating, Goosegrass” value ([6]; 16 g ai/ha, 0 to 100 scale) was 80 and the “Plant response rating, Goosegrass” value [6, 17] was 95. For the same compound, the “Plant response rating, Goosegrass” value [6, 18] was 100, the “Plant response rating, Crabgrass, Large” value ([7]; 16 g ai/ha, 0 to 100 scale) was 75 and the “Plant response rating, Crabgrass, Large” value [7, 17] was 85. For the same compound, the “Plant response rating, Crabgrass, Large” value [7, 18] was 100, the “Plant response rating, Morningglory” value ([8]; 16 g ai/ha, 0 to 100 scale) was 95 and the “Plant response rating, Morningglory” value [8, 17] was 95. The “Plant response rating, Morningglory” value [8, 18] was 100, the “Plant response rating, Velvetleaf” value ([9]; 16 g ai/ha, 0 to 100 scale) was 75 and the “Plant response rating, Velvetleaf” value [9, 17] was 100. The “Plant response rating, Velvetleaf” value [9, 18] was 100, the “Plant response rating, Wheat” value ([10]; 16 g ai/ha, 0 to 100 scale) was 0 and the “Plant response rating, Wheat” value [10, 17] was 0. For the same compound, the “Plant response rating, Wheat” value [10, 18] was 5, the “Plant response rating, Cupgrass, Woolly” value ([11]; 16 g ai/ha, 0 to 100 scale) was 75 and the “Plant response rating, Cupgrass, Woolly” value [11, 17] was 85. The “Plant response rating, Cupgrass, Woolly” value [11, 18] was 100, the “Plant response rating, Nutsedge, Yellow” value ([12]; 16 g ai/ha, 0 to 100 scale) was 0 and the “Plant response rating, Nutsedge, Yellow” value [12, 17] was 0. The “Plant response rating, Nutsedge, Yellow” value [12, 18] was 55.

With `CCCCn1c(-c2ccccc2)ncc(C(=O)C2=C(O)C3CCC(C3)C2=O)c1=O` (stereo not drawn) [Compound 240] the “Plant response rating, Barnyardgrass” value [1, 14] was 100, the “Barnyardgrass plant response rating” value ([1]; Postemergence, 500 g ai/ha) was 100 and the “Plant response rating, Barnyardgrass” value [1, 15] was 40. The “Plant response rating, Pigweed” value [2, 14] was 90, the “Pigweed plant response rating” value ([2]; Postemergence, 500 g ai/ha) was 100 and the “Plant response rating, Pigweed” value [2, 15] was 20. The “Plant response rating, Pigweed” value [2, 16] was 100, the “Plant response rating, Ryegrass, Italian” value [3, 17] was 10 and the “Plant response rating, Ryegrass, Italian” value [3, 20] was 40. For the same compound, the “Plant response rating, Ryegrass, Italian” value [3, 21] was 40, the “Plant response rating, Ryegrass, Italian” value [3, 22] was 15 and the “Plant response rating, Surinam Grass” value [13, 17] was 95. For the same compound, the “Plant response rating, Surinam Grass” value [13, 20] was 100, the “Plant response rating, Surinam Grass” value [13, 21] was 100 and the “Plant response rating, Surinam Grass” value [13, 22] was 98. For the same compound, the “Plant response rating, Blackgrass” value [4, 17] was 40, the “Plant response rating, Blackgrass” value [4, 20] was 65 and the “Plant response rating, Blackgrass” value [4, 21] was 65. For the same compound, the “Plant response rating, Blackgrass” value [4, 22] was 50, the “Plant response rating, Bromegrass, Downy” value [5, 17] was 10 and the “Plant response rating, Bromegrass, Downy” value [5, 20] was 25. For the same compound, the “Plant response rating, Bromegrass, Downy” value [5, 21] was 50, the “Plant response rating, Bromegrass, Downy” value [5, 22] was 20 and the “Plant response rating, Goosegrass” value [6, 17] was 95. For the same compound, the “Plant response rating, Goosegrass” value [6, 20] was 98, the “Plant response rating, Goosegrass” value [6, 21] was 98 and the “Plant response rating, Goosegrass” value [6, 22] was 98. For the same compound, the “Plant response rating, Crabgrass, Large” value [7, 17] was 80, the “Plant response rating, Crabgrass, Large” value [7, 20] was 100 and the “Plant response rating, Crabgrass, Large” value [7, 21] was 100. For the same compound, the “Plant response rating, Crabgrass, Large” value [7, 22] was 98, the “Plant response rating, Velvetleaf” value [9, 17] was 75 and the “Plant response rating, Velvetleaf” value [9, 20] was 85. For the same compound, the “Plant response rating, Velvetleaf” value [9, 21] was 100, the “Plant response rating, Velvetleaf” value [9, 22] was 85 and the “Plant response rating, Wheat” value [10, 17] was 30. The “Plant response rating, Wheat” value [10, 20] was 50, the “Plant response rating, Wheat” value [10, 21] was 50 and the “Plant response rating, Wheat” value [10, 22] was 35. For the same compound, the “Plant response rating, Cupgrass, Woolly” value [11, 17] was 98, the “Plant response rating, Cupgrass, Woolly” value [11, 20] was 100 and the “Plant response rating, Cupgrass, Woolly” value [11, 21] was 100. The “Plant response rating, Cupgrass, Woolly” value [11, 22] was 100, the “Plant response rating, Nutsedge, Yellow” value [12, 17] was 10 and the “Plant response rating, Nutsedge, Yellow” value [12, 20] was 20. For the same compound, the “Plant response rating, Nutsedge, Yellow” value [12, 21] was 45 and the “Plant response rating, Nutsedge, Yellow” value [12, 22] was 15.
